Our source for the EC50 values is US12134610B2, “Somatostatin subtype-2 receptor (SST2R) targeted therapeutics and uses thereof” (priority 2022, dated 2024).

Structures are written as SMILES. Read-outs that look alike come from different tables or passages of the source. Starred links: 1 amine or outer side, 2 acyl side, 3 side chain; linkers in the order of their positions; H or OH if unused. Non-standard residues stand in square brackets, D forms with d. Residues, ends and D or L forms follow the SMILES beside them. *: point of attachment. X1 = Cc1cc(F)cc(-c2cnc(NCCNC(=O)CCOCCC(=O)*)c(-c3nc4ccc(Cl)cc4[nH]3)c2N2CCC(N)CC2)c1; X5 = Cc1cc(F)cc(-c2cnc(NCCNC(=O)CCOCCC(=O)*)c(-c3nc4cc(Cl)ccc4[nH]3)c2N2CCC(N)CC2)c1; Dolaproine = CO[C@@H]([C@@H]1CCCN1)[C@@H](C)C(=O)O; Dil = CC[C@H](C)[C@H](NC)[C@@H](CC(=O)O)OC; PABC = O=C(OCc1ccc(N[*:1])cc1)[*:2]; X2 = C[C@@H](N*)[C@@H](O)c1ccccc1; Cya = N[C@@H](CS(=O)(=O)O)C(=O)O; Cit = NC(=O)NCCC[C@H](N)C(=O)O; NMeV = CN[C@H](C(=O)O)C(C)C

What all share (type): cell-based
For test [1], the target named is T1, human somatostatin receptor subtype 2 (Homo sapiens, UniProt P30874).
T1 construct: expressed in transfected cells
In words: Functional cAMP assay for SSTR2 agonists (HTRF) in CHO-K1 cells. Conditions: CHO-K1 cells stably expressing human SST2, 20 min. From the text: General overview: All five SSTR subtypes are Gi coupled G-protein coupled receptors (GPCRs) that lead to decreases in intracellular cyclic AMP (cAMP) when activated by an agonist. Therefore, measurement of intracellular cAMP levels can be used to assess whether compounds of the invention are agonists of SSTR subtypes (John Kelly, Troy Stevens, W. Joseph Thompson, and Roland Seifert, Current Protocols in Pharmacology, 2005, 2.2.1-2.2). One example of an intracellular cAMP assay is described below.
Functional Assay for SSTR2 Agonists
Four days prior to the assay, 2,000 Chinese hamster ovary cells (CHO-K1, ATCC #CCL-61) stably expressing the human somatostatin receptor subtype 2 are plated in each well of a 96-well tissue culture-treated plate in Ham's F12 growth media (ThermoFisher #10-080-CM) supplemented with 10% donor bovine serum (Gemini Bio-Products #100-506), 100 U/mL penicillin; 100 ug/mL streptomycin; 2 mM L-glutamine (Gemini Bio-Products #400-110) and 0.2 mg/mL hygromycin B (GoldBio #31282-04-9). The cells are cultured at 37° C., 5% CO2 and 95% humidity. cAMP is measured with HTRF dynamic cAMP assay (Cisbio, #62AM5PEJ) per manufacturer's instructions. On the day of the assay, the media is aspirated and the cells are treated with 50 μL of stimulation buffer supplemented with 10.2 mM 3-Isobutyl-1-methylxanthine (IBMX, Millipore Sigma #15879) and 1.6 μM NKH477 (Tocris #1603), plus various dilutions of SMDCs of the present invention. The cells are incubated for 20 minutes at 37° C. (the final concentration of the compounds of the invention are typically 0-10,000 nM). The cells are treated with 50 μL of lysis buffer (HRTF cAMP kit, Cisbio) and incubated at room temperature for 30 minutes with rotary shaking at 600 rpm, and then diluted with 150 μL of stimulation buffer and shaken for an additional five minutes at 300 rpm. The lysate is transferred to 384-well plates and incubated for 1-24 hours at room temperature, and cAMP accumulation is detected by d2-labeled cAMP and Anti-cAMP-Cryptate. The time-resolved fluorescent signal is read using a m1000 Pro (Tecan) or CLARIOStar (BMG Labtech) microplate reader, where the samples are excited with light at 340 nm and emission light is measured at 620 nm and 665 nm. The data is expressed as a calculation of the fluorescence ratio (665 nm/620 nm). The intracellular cAMP concentrations are calculated by regression to a standard curve and are plotted vs. the concentration of the compounds of the invention. The EC50 of the compounds are calculated using standard methods. All data manipulations are in GraphPad Prism v9 (GraphPad, San Diego, CA).

A further test concerns the target T2, SST2 (Homo sapiens, UniProt P30874).
T2 construct: host or cells: PathHunter CHO-K1 SST2 cells
In words: PathHunter CHO-K1 SST2 internalization assay. The following applies: PathHunter CHO-K1 SST2, 90 min. On the procedure: SMDCs of the present invention were assessed in vitro using the human PathHunter CHO-K1 SST2 β-arrestin2 and PathHunter CHO-K1 SST2 Internalization Assays from DiscoverX. The CHO-K cells were seeded in 20 μLs of cell culture medium in a white-walled 384 well tissue culture-compatible plate at a density of 2500 cells/well. After a 48-hour incubation, cells were treated with 5 μLs of a 1:3 serially diluted SST2 SMDC prepared at 5× concentration with a final top compound concentration of 10 uM for 90 min at 37 C and in 5% CO2. 11 dilutions were tested as well as one treatment that was compound free. After incubation, the media containing treatments were discarded and 20 μL of a working solution of Beta-Glo from Promega Beta-Glo Assay System was added to each well. The plate was then incubated for 60 min at room temperature in the dark. Luminescence was measured using a Tecan plate reader. IC50 curves were generated using the nonlinear regression analysis (four-parameters) with GraphPad Prism 9. Results were the average of duplicates and are corrected for background.

Test [2] deals with NCI-H524 (ATCC) human small cell lung cancer cells. Here is the method:
SMDCs of the present invention were assessed in an in vitro assay evaluating the inhibition of cell proliferation. NCI-H524 (ATCC) human small cell lung cancer cells were plated in 96-well V-bottom plates (Costar) at a concentration of 5,000 cells/well. 24 h later, the cells were treated for 2 h with a SMDC. SMDC starting dose was 1 uM and two-fold serial dilutions were done for a total of 11 points. After 2 h of treatment, cells were spun down, and the drug-containing media was removed, and fresh complete media was added and used to resuspend the cells, which were spun again. After removal of the media, the cells were resuspended in complete medium and incubated for an additional 70 h. Cell proliferation was assessed using the CellTiter Glo Assay according to the standard protocol (Promega). Luminescence was measured using a TECAN plate reader. Percent proliferation inhibition was calculated using the following formula: % inhibition=(Luminescence Control−Luminescence Treatment)/Luminescence Control*100. IC50 curves were generated using the nonlinear regression analysis (four-parameter) with GraphPad Prism 9.

T1 sequence (P30874 whole entry): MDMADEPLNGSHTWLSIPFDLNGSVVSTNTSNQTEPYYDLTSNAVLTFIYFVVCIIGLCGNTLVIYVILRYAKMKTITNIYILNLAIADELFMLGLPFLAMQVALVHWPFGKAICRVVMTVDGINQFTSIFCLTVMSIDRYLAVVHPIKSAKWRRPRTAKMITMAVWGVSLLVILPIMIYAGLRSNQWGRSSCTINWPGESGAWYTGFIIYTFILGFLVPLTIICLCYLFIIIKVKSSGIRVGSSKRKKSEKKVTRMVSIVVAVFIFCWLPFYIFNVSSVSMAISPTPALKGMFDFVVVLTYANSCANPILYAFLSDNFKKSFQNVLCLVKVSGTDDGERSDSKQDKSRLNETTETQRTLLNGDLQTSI
T2 sequence (P30874 whole entry): as above

For the molecule `CC[C@H](C)[C@@H]([C@@H](CC(=O)N1CCC[C@H]1[C@H](OC)[C@@H](C)C(=O)N[C@H](C)[C@@H](O)c1ccccc1)OC)N(C)C(=O)[C@@H](NC(=O)[C@H](C(C)C)N(C)C(=O)OCc1ccc(NC(=O)[C@H](CCCNC(N)=O)NC(=O)[C@@H](NCCOCCOCCOCCOCCC(=O)NCCNc2ncc(-c3cc(C)cc(F)c3)c(N3CCC(N)CC3)c2-c2nc3ccc(Cl)cc3[nH]2)C(C)C)cc1)C(C)C` [Compound 69], the EC50 in test [1] (read-out: hSST2 cAMP Avg EC50) stood at 0.25 nM; on SST2 (read-out: Internalization EC50), 7.8 nM; in test [2] (2 h), 14.5 nM.
As for `CC[C@@]1(O)C(=O)OCc2c1cc1n(c2=O)Cc2c-1nc1cc(F)c(C)c3c1c2[C@@H](NC(=O)OCc1ccc(NC(=O)[C@H](CCCNC(N)=O)NC(=O)[C@@H](NC(=O)CCOCCC(=O)NCCNc2ncc(-c4cc(C)cc(F)c4)c(N4CCC(N)CC4)c2-c2nc4ccc(Cl)cc4[nH]2)C(C)C)cc1C(=O)NCCN)CC3` [Compound 90], the EC50 in test [1] (hSST2 cAMP Avg EC50 (nM)) is 0.22 nM; on SST2 (Internalization EC50 (nM)), 4.8 nM; in test [2] (2 h treatment, washout, additional 70 h, read-out: H524 EC50) it was 71 nM.
For `CC[C@H](C)[C@@H]([C@@H](CC(=O)N1CCC[C@H]1[C@H](OC)[C@@H](C)C(=O)N[C@H](C)[C@@H](O)c1ccccc1)OC)N(C)C(=O)[C@H](C)NC(=O)[C@H](C(C)C)N(C)C(=O)OCc1ccc(NC(=O)[C@@H](NC(=O)[C@@H](NC(=O)CCN(C)CCC(=O)NCCNc2ncc(-c3cc(C)cc(F)c3)c(N3CCC(N)CC3)c2-c2nc3ccc(Cl)cc3[nH]2)C(C)C)C(C)C)c(O[C@@H]2O[C@H](C(=O)O)[C@@H](O)[C@H](O)[C@H]2O)c1` [Compound 154], the EC50 in test [1] (read-out: hSST2 cAMP Avg EC50) stood at 0.16 nM; on SST2 (read-out: Internalization EC50), 25 nM; in test [2] (2 h) it was 29 nM.
Turning to `CC[C@H](C)[C@@H]([C@@H](CC(=O)N1CCC[C@H]1[C@H](OC)[C@@H](C)C(=O)N[C@H](C)[C@@H](O)c1ccccc1)OC)N(C)C(=O)[C@@H](NC(=O)[C@H](C(C)C)N(C)C(=O)OCc1ccc(NC(=O)[C@H](CCCNC(N)=O)NC(=O)[C@@H](NC(=O)[C@@H](CC(=O)O)NC(=O)[C@@H](CC(=O)O)NC(=O)[C@@H](CC(=O)O)NC(=O)CCOCCC(=O)NCCNc2ncc(-c3cc(C)cc(F)c3)c(N3CCC(N)CC3)c2-c2nc3ccc(Cl)cc3[nH]2)C(C)C)cc1)C(C)C` [Compound 109] (X1-[dD][dD][dD]V[Cit][PABC][NMeV]V[Dil][Dolaproine]-X2), the EC50 in test [1] (read-out: hSST2 cAMP Avg EC50) turned out to be 0.7 nM; at SST2 (read-out: Internalization EC50), 11 nM; in test [2] (2 h) it was 2500 nM.
Turning to `Cc1cc(F)cc(-c2cnc(NCCNC(=O)CCOCCOCCOCCOCCNC(=O)CCCCC[N+]3=C(/C=C/C=C/C=C4/N(C)c5ccccc5C4(C)C)C(C)(C)c4ccccc43)c(-c3nc4ccc(Cl)cc4[nH]3)c2N2CCC(N)CC2)c1` [Compound 12, 1-[5-({14-[(2-{[4-(4-aminopiperidin-1-yl)-3-(6-chloro-1H-1,3-benzodiazol-2-yl)-5-(3-fluoro-5-methylphenyl)pyridin-2-yl]amino}ethyl)carbamoyl]-3,6,9,12-tetraoxatetradecan-1-yl}carbamoyl)pentyl]-3,3-dimethyl-2-[(1E,3E)-5-[(2E)-1,3,3-trimethyl-2,3-dihydro-1H-indol-2-ylidene]penta-1,3-dien-1-yl]-3H-indol-1-ium], the EC50 was 0.39 nM in test [1] (read-out: hSST2 cAMP Avg EC50) and 2.9 nM at SST2 (read-out: Internalization EC50).
For the molecule `CC[C@H](C)[C@@H]([C@@H](CC(=O)N1CCC[C@H]1[C@H](OC)[C@@H](C)C(=O)N[C@H](C)[C@@H](O)c1ccccc1)OC)N(C)C(=O)[C@@H](NC(=O)[C@H](C(C)C)N(C)C(=O)OCc1ccc(NC(=O)[C@H](C)NC(=O)[C@@H](NC(=O)[C@H](CCC(=O)O)NC(=O)CCOCCC(=O)NCCNc2ncc(-c3cc(C)cc(F)c3)c(N3CCC(N)CC3)c2-c2nc3cc(Cl)ccc3[nH]2)C(C)C)cc1)C(C)C` [Compound 32] (X5-EVA[PABC][NMeV]V[Dil][Dolaproine]-X2), a half-maximal effect in test [2] (2 h) (EC50) was put at 155 nM.
Take `CC[C@H](C)[C@@H]([C@@H](CC(=O)N1CCC[C@H]1[C@H](OC)[C@@H](C)C(=O)N[C@H](C)[C@@H](O)c1ccccc1)OC)N(C)C(=O)[C@@H](NC(=O)[C@H](C(C)C)N(C)C(=O)OCc1ccc(NC(=O)[C@H](CCCNC(N)=O)NC(=O)[C@@H](NC(=O)[C@H](CS(=O)(=O)O)NC(=O)CCOCCOCCOCCOCCC(=O)NCCNc2ncc(-c3cc(C)cc(F)c3)c(N3CCC(N)CC3)c2-c2nc3ccc(Cl)cc3[nH]2)C(C)C)cc1C(=O)NCCN)C(C)C` [Compound 157]: the figures for the half-maximal effective concentration (EC50) (in test [1] (read-out: hSST2 cAMP Avg EC50); at SST2 (read-out: Internalization EC50)) were 0.17 nM and 12 nM, respectively.
For `CC[C@H](C)[C@@H]([C@@H](CC(=O)N1CCC[C@H]1[C@H](OC)[C@@H](C)C(=O)N[C@H](C)[C@@H](O)c1ccccc1)OC)N(C)C(=O)[C@@H](NC(=O)[C@H](C(C)C)N(C)C(=O)OCc1ccc(NC(=O)[C@H](CCCNC(N)=O)NC(=O)[C@@H](NC(=O)[C@H](CS(=O)(=O)O)NC(=O)[C@H](CCC(=O)O)NC(=O)CCOCCC(=O)NCCNc2ncc(-c3cc(C)cc(F)c3)c(N3CCC(N)CC3)c2-c2nc3ccc(Cl)cc3[nH]2)C(C)C)cc1)C(C)C` [Compound 115] (X1-E[Cya]V[Cit][PABC][NMeV]V[Dil][Dolaproine]-X2), the values for the EC50 (in test [1] (read-out: hSST2 cAMP Avg EC50); at SST2 (read-out: Internalization EC50)) were 0.08 nM and 3.6 nM, respectively.
Take `CC[C@@]1(O)C(=O)OCc2c1cc1n(c2=O)Cc2c-1nc1cc(F)c(C)c3c1c2[C@@H](NC(=O)OCc1ccc(NC(=O)[C@H](CCCNC(N)=O)NC(=O)[C@@H](NC(=O)CCOCCOCCOCCOCCC(=O)NCCNc2ncc(-c4cc(C)cc(F)c4)c(N4CCC(N)CC4)c2-c2nc4ccc(Cl)cc4[nH]2)C(C)C)c(O[C@@H]2O[C@H](C(=O)O)[C@@H](O)[C@H](O)[C@H]2O)c1)CC3` [Compound 127]: the results for the EC50 (in test [1] (hSST2 cAMP Avg EC50 (nM)); on SST2 (Internalization EC50 (nM))) were 0.26 nM and 13 nM, respectively.
In turn, `CC[C@H](C)[C@@H]([C@@H](CC(=O)N1CCC[C@H]1[C@H](OC)[C@@H](C)C(=O)N[C@H](C)[C@@H](O)c1ccccc1)OC)N(C)C(=O)[C@@H](NC(=O)[C@H](C(C)C)N(C)C(=O)OCc1ccc(NC(=O)[C@H](CCCNC(N)=O)NC(=O)[C@@H](NC(=O)[C@H](CS(=O)(=O)O)NC(=O)CCOCCOCCOCCOCCC(=O)NCCNc2ncc(-c3cc(C)cc(F)c3)c(N3CCC(N)CC3)c2-c2nc3cc(Cl)ccc3[nH]2)C(C)C)cc1)C(C)C` [Compound 81] had an EC50 in test [2] (2 h) of 32 nM.
